Source: ChEMBL document CHEMBL2412968, “Tetrazole-based deoxyamodiaquines: synthesis, ADME/PK profiling and pharmacological evaluation as potential antimalarial agents” (Bioorg Med Chem, 2013)
In brackets after ≈: the same amount, converted by molar mass.

Key:
[1] = tested on: Plasmodium falciparum; assay: Antiplasmodial activity chloroquine-resistant Plasmodium falciparum W2 using YOYO-1 staining after 48 hrs by FACS analysis; format: functional, organism-based; conditions: W2, 48 h
[2] = tested on: Plasmodium falciparum; assay: Antiplasmodial activity chloroquine-sensitive Plasmodium falciparum 3D7 infected in human A+ erythrocytes assessed as reduction of [3H]hypoxanthine incorporation after 24 hrs by scintillation counting; format: functional, organism-based
[3] = tested on: Plasmodium falciparum; assay: Antiplasmodial activity chloroquine-resistant Plasmodium falciparum K1 infected in human A+ erythrocytes assessed as reduction of [3H]hypoxanthine incorporation after 24 hrs by scintillation counting; format: functional, organism-based
[4] = physchem; conditions: phosphate buffered saline, pH 7.4
[5] = physchem; conditions: 0.01 M HCl, pH 2
[6] = tested on: CHO; assay: Cytotoxicity against CHO cells by MTT assay; format: cell-based; conditions: Cricetulus griseus

| Structure (SMILES) | IC50 [1] [nM] | IC50 [2] [nM] | IC50 [3] [nM] | solubility kinetic at 2 h [4] [µM] | solubility kinetic at 2 h [5] [µM] | IC50 [6] [nM] |
| --- | --- | --- | --- | --- | --- | --- |
| Clc1ccc2c(Nc3cccc(C(c4nnnn4CCN4CCOCC4)N4CCCC4)c3)ccnc2c1 (stereo not drawn) | 3390 | 220 | 310 | – | – | – |
| CN(C)C(c1ccccc1Nc1ccnc2cc(Cl)ccc12)c1nnnn1C(C)(C)C (stereo not drawn) | 3380 | 3500 | 3500 | – | – | – |
| CN(C)C(c1ccc(Nc2ccnc3cc(Cl)ccc23)cc1)c1nnnn1C(C)(C)C (stereo not drawn) | 40 | 12 | 12 | – | – | – |
| CN(C)C(c1cccc(Nc2ccnc3cc(Cl)ccc23)c1)c1nnn[nH]1 (stereo not drawn) | 1170 | 487 | 2980 | 72.6 (≈ 27.6 µg/mL) | > 200 | – |
| CCN(CC)C(c1cccc(Nc2ccnc3cc(Cl)ccc23)c1)c1nnn[nH]1 (stereo not drawn) | 475 | 164 | 54 | 149 (≈ 60.8 µg/mL) | > 200 | – |
| Clc1ccc2c(Nc3cccc(C(c4nnn[nH]4)N4CCCC4)c3)ccnc2c1 (stereo not drawn) | 181 | 1100 | 49 | 150 (≈ 60.9 µg/mL) | > 200 | – |
| Clc1ccc2c(Nc3cccc(C(c4nnn[nH]4)N4CCCCC4)c3)ccnc2c1 (stereo not drawn) | 487 | 286 | 1260 | 122 (≈ 51.2 µg/mL) | > 200 | – |
| Clc1ccc2c(Nc3cccc(C(c4nnn[nH]4)N4CCOCC4)c3)ccnc2c1 (stereo not drawn) | 1390 | 2070 | 1970 | – | – | – |
| CC[C@H]1CN2CCc3cc(OC)c(OC)cc3[C@@H]2C[C@@H]1C[C@H]1NCCc2cc(OC)c(OC)cc21 [EMETINE] | – | – | – | – | – | 129 |
